In one assay the target is ComD1 receptor (Streptococcus pneumoniae serotype 2, UniProt A0A0H2ZM50). Nature of the assay: cell-based. It counts as cell-based. The note with it: for maximal induction of comX compared to CSP1 / potency higher than CSP1-cyc(Orn6D10): ComD1. An excerpt: (§1) Biological evaluation of cyclic dnCSPs. The cyclic dnCSPs will be assessed for inhibition of competence induction using the β-gal, lux (FIG. 11) or luc (FIG. 15) reporter systems we have optimized for the analysis of a large number of signal variants in 96-well plates. All assays will be performed in triplicates and independently three times. Serial dilutions of dnCSPs will be conducted to determine the EC50 and IC50 values of promising dnCSPs through initial screening. Data from reporter assays will be analyzed using the GraphPad Prism software. The lead dnCSPs will be assessed for their therapeutic potential using multiple in vitro assays, including attenuation of ComX-induction (reporter systems), genetic transformation, allolysis (zymogram assays), and release of PLY (hemolysis & Western blots). Lastly, the pneumococcal competence system regulates biofilm formation, which is important for the pathogenesis of […]. The ability of the dnCSPs to inhibit biofilm formation will be evaluated after 24 hr of growth on 1% BSA coated coverslips placed in flat-bottom polystyrene tissue culture plates by staining with FilmTracer LIVE/DEAD Biofilm viability kit (Invitrogen, L10316), and visualized using a confocal microscope and Z-stacked to construct 3D-images.
Chain of ComD1 receptor (A0A0H2ZM50 entry or part of it): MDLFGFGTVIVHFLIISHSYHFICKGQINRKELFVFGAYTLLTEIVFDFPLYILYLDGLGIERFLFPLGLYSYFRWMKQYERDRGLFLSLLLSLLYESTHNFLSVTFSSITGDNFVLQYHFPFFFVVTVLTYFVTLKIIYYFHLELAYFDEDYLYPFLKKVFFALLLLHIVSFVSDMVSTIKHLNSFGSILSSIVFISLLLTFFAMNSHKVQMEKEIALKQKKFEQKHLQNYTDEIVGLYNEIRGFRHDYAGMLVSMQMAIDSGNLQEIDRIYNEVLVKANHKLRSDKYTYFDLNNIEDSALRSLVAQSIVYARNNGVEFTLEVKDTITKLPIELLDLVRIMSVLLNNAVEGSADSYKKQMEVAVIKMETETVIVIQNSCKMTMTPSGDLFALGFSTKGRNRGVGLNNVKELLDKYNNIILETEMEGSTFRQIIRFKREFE

Another assay has as its target ComD2 receptor (Streptococcus pneumoniae serotype 4, UniProt A0A0H2US84). Nature of the assay: cell-based. It counts as cell-based.
Text: as §1, with “The cyclic dnCSPs will be assessed for inhibition of competence induction using the β-gal, lux (FIG. 11) or luc (FIG. 15) reporter systems we have optimized for the analysis of a large number of signal variants in 96-well plates.” left out

Where two headings read alike, the source gives them in different places. Bridge positions count the residues as written; N and C are the ends. Square brackets hold non-standard residues; d marks the D form. Peptide text beside a SMILES is read from it. Dab = NCC[C@H](N)C(=O)O; Dap = NC[C@H](N)C(=O)O

Chain of ComD2 receptor (A0A0H2US84 entry or part of it): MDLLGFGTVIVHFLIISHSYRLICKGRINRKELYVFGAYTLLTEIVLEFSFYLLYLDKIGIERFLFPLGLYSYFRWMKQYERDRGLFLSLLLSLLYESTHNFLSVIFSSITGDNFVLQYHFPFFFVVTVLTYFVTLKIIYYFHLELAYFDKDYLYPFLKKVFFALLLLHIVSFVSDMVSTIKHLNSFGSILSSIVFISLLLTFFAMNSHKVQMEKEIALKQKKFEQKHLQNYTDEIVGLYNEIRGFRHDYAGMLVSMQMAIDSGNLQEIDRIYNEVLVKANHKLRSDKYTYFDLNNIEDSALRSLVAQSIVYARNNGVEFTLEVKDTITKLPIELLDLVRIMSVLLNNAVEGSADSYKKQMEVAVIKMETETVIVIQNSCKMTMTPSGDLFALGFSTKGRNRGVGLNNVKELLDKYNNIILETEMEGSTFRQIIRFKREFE

As a reminder, the EC50 is the concentration needed to bring the measured effect to its halfway point. High values mean a need for much substance, low ones an effect from little substance. As to `CC[C@H](C)[C@H](NC(=O)[C@H](Cc1ccccc1)NC(=O)[C@@H]1CC(=O)NCCC[C@H](NC(=O)[C@H](CO)NC(=O)[C@H](CC(C)C)NC(=O)[C@H](CCCNC(=N)N)NC(=O)[C@H](CCSC)NC(=O)[C@@H](N)CCC(=O)O)C(=O)N[C@@H](Cc2ccccc2)C(=O)N[C@@H](Cc2ccccc2)C(=O)N[C@@H](CCCNC(=N)N)C(=O)N1)C(=O)N[C@@H](CC(C)C)C(=O)N[C@@H](CCC(N)=O)C(=O)N[C@@H](CCCNC(=N)N)C(=O)N[C@@H](CCCCN)C(=O)N[C@@H](CCCCN)C(=O)O` [CSP1-cyc(Orn6D10)], on ComD1 receptor, the EC50 came to 193 nM and the “maximal induction of comX compared to CSP1” value stood at 100%. For the same molecule, the half-maximal effective concentration (EC50) on ComD2 receptor is more than 1000 nM.
For `CC[C@H](C)[C@H](NC(=O)[C@H](Cc1ccccc1)NC(=O)[C@H](CC(=O)O)NC(=O)[C@@H]1CC(=O)NCCCC[C@H](NC(=O)[C@H](CO)NC(=O)[C@H](CC(C)C)NC(=O)[C@H](CCCNC(=N)N)NC(=O)[C@H](CCSC)NC(=O)[C@@H](N)CCC(=O)O)C(=O)N[C@@H](Cc2ccccc2)C(=O)N[C@@H](Cc2ccccc2)C(=O)N1)C(=O)N[C@@H](CC(C)C)C(=O)N[C@@H](CCC(N)=O)C(=O)N[C@@H](CCCNC(=N)N)C(=O)N[C@@H](CCCCN)C(=O)N[C@@H](CCCCN)C(=O)O` [CSP1-cyc(K6D9)] (H-EMRLSKFFDDFILQRKK-OH; lactam 6-9; N-terminus and C-terminus assumed), the results for the EC50 at ComD1 receptor and on ComD2 receptor were more than 1000 nM and 528 nM, respectively.
Consider `CC[C@H](C)[C@H](NC(=O)[C@H](Cc1ccccc1)NC(=O)[C@@H]1CCC(=O)NC[C@H](NC(=O)[C@H](CO)NC(=O)[C@H](CC(C)C)NC(=O)[C@H](CCCNC(=N)N)NC(=O)[C@H](CCSC)NC(=O)[C@@H](N)CCC(=O)O)C(=O)N[C@@H](Cc2ccccc2)C(=O)N[C@@H](Cc2ccccc2)C(=O)N[C@@H](CCCNC(=N)N)C(=O)N1)C(=O)N[C@@H](CC(C)C)C(=O)N[C@@H](CCC(N)=O)C(=O)N[C@@H](CCCNC(=N)N)C(=O)N[C@@H](CCCCN)C(=O)N[C@@H](CCCCN)C(=O)O` [CSP1-cyc(Dap6E10)] (H-EMRLS[Dap]FFREFILQRKK-OH; lactam 6-10; N-terminus and C-terminus assumed), for which, at ComD1 receptor, the EC50 is 14.6 nM, the “maximal induction of comX compared to CSP1” value was determined as 100% and the “potency higher than CSP1-cyc(Orn6D10)” value is reported as 10 fold. At ComD2 receptor, the EC50 turned out to be 13.1 nM and the “potency against ComD2 receptor higher than CSP2” value was “about 4 fold”.
Turning to `CC[C@H](C)[C@H](NC(=O)[C@H](Cc1ccccc1)NC(=O)[C@@H]1CC(=O)NCCCC[C@H](NC(=O)[C@H](CO)NC(=O)[C@H](CC(C)C)NC(=O)[C@H](CCCNC(=N)N)NC(=O)[C@H](CCSC)NC(=O)[C@@H](N)CCC(=O)O)C(=O)N[C@@H](Cc2ccccc2)C(=O)N[C@@H](Cc2ccccc2)C(=O)N[C@@H](CCCNC(=N)N)C(=O)N1)C(=O)N[C@@H](CC(C)C)C(=O)N[C@@H](CCC(N)=O)C(=O)N[C@@H](CCCNC(=N)N)C(=O)N[C@@H](CCCCN)C(=O)N[C@@H](CCCCN)C(=O)O` [CSP1-cyc(K6D10)], the EC50 at ComD1 receptor was 258 nM; at ComD2 receptor, more than 1000 nM. Moreover, at ComD1 receptor, the “maximal induction of comX compared to CSP1” value amounted to 44%.
Consider CSP1-E1AK6A (AMRLSAFFRDFILQRKK), for which the “inhibition of ComD receptors” value in the assay with ComD1 receptor is recorded as “could only strongly inhibit the ComD1 receptor”.
Take `CC[C@H](C)[C@H](NC(=O)[C@H](Cc1ccccc1)NC(=O)[C@@H]1CCC(=O)NCCCC[C@H](NC(=O)[C@H](CO)NC(=O)[C@H](CC(C)C)NC(=O)[C@H](CCCNC(=N)N)NC(=O)[C@H](CCSC)NC(=O)[C@@H](N)CCC(=O)O)C(=O)N[C@@H](Cc2ccccc2)C(=O)N[C@@H](Cc2ccccc2)C(=O)N[C@@H](CCCNC(=N)N)C(=O)N1)C(=O)N[C@@H](CC(C)C)C(=O)N[C@@H](CCC(N)=O)C(=O)N[C@@H](CCCNC(=N)N)C(=O)N[C@@H](CCCCN)C(=O)N[C@@H](CCCCN)C(=O)O` [CSP1-cyc(K6E10)]: the EC50 on ComD1 receptor is 350 nM; on ComD2 receptor, more than 1000 nM.
In general, IC50 refers to the midpoint of a concentration-inhibition curve. With `CC[C@H](C)[C@H](NC(=O)[C@H](Cc1ccccc1)NC(=O)[C@@H]1CCC(=O)NCC[C@H](NC(=O)[C@H](CO)NC(=O)[C@H](CC(C)C)NC(=O)[C@H](CCCNC(=N)N)NC(=O)[C@H](CCSC)NC(=O)[C@H](C)N)C(=O)N[C@@H](Cc2ccccc2)C(=O)N[C@@H](Cc2ccccc2)C(=O)N[C@@H](CCCNC(=N)N)C(=O)N1)C(=O)N[C@@H](CC(C)C)C(=O)N[C@@H](CCC(N)=O)C(=O)N[C@@H](CCCNC(=N)N)C(=O)N[C@@H](CCCCN)C(=O)N[C@@H](CCCCN)C(=O)O` [CSP1-E1A-cyc(Dab6E10), A-M-R-L-S-(Dab-F-F-R-E)-F-I-L-Q-R-K-K] (H-AMRLS[Dab]FFREFILQRKK-OH; lactam 6-10; N-terminus and C-terminus assumed), the IC50 on ComD1 receptor was 173 nM; at ComD2 receptor it was more than 1000 nM; on ComD2 receptor (read-out: ComD2 IC50 (95% CI), Table 2, β-gal reporter, IC50 values in italic font), more than 1000 nM.
For `CC[C@H](C)[C@H](NC(=O)[C@H](Cc1ccccc1)NC(=O)[C@@H]1CCC(=O)NCC[C@H](NC(=O)[C@H](CO)NC(=O)[C@H](CC(C)C)NC(=O)[C@H](CCCNC(=N)N)NC(=O)[C@H](CCSC)NC(=O)[C@@H](N)CCC(=O)O)C(=O)N[C@@H](Cc2ccccc2)C(=O)N[C@@H](Cc2ccccc2)C(=O)N[C@@H](CCCNC(=N)N)C(=O)N1)C(=O)N[C@@H](CC(C)C)C(=O)N[C@@H](CCC(N)=O)C(=O)N[C@@H](CCCNC(=N)N)C(=O)N[C@@H](CCCCN)C(=O)N[C@@H](CCCCN)C(=O)O` [CSP1-cyc(Dab6E10)] (H-EMRLS[Dab]FFREFILQRKK-OH; lactam 6-10; N-terminus and C-terminus assumed), on ComD1 receptor, a half-maximal response (EC50) required 12.2 nM, the “maximal induction of comX compared to CSP1” value was found to be 100% and the “potency higher than CSP1-cyc(Orn6D10)” value amounted to 10 fold. The 50% effective concentration (EC50) on ComD2 receptor was 31.4 nM.
`CC[C@H](C)[C@H](NC(=O)[C@H](Cc1ccccc1)NC(=O)[C@@H]1CCC(=O)NC[C@H](NC(=O)[C@H](CO)NC(=O)[C@H](CC(C)C)NC(=O)[C@H](CCCNC(=N)N)NC(=O)[C@H](CCSC)NC(=O)[C@H](C)N)C(=O)N[C@@H](Cc2ccccc2)C(=O)N[C@@H](Cc2ccccc2)C(=O)N[C@@H](CCCNC(=N)N)C(=O)N1)C(=O)N[C@@H](CC(C)C)C(=O)N[C@@H](CCC(N)=O)C(=O)N[C@@H](CCCNC(=N)N)C(=O)O` [CSP1-E1A-des-K16K17-cyc(Dap6E10), A-M-R-L-S-(Dap-F-F-R-E)-F-I-L-Q-R] (H-AMRLS[Dap]FFREFILQR-OH; lactam 6-10; N-terminus and C-terminus assumed): on ComD1 receptor, the IC50 was determined as 7.57 nM and the “higher inhibition potency against the ComD1 receptor compared to parent CSP1-E1A-cyc(Dap6E10)” value was approximately 10 fold. At ComD2 receptor, half-maximal inhibition (IC50) required 67.2 nM and the “higher inhibition potency against the ComD2 receptor compared to parent CSP1-E1A-cyc(Dap6E10)” value turned out to be 3 fold.
With `CC[C@H](C)[C@@H]1NC(=O)[C@H](Cc2ccccc2)NC(=O)[C@@H](NC(=O)[C@H](CCCNC(=N)N)NC(=O)[C@H](Cc2ccccc2)NC(=O)[C@H](Cc2ccccc2)NC(=O)[C@H](CCCCN)NC(=O)[C@H](CO)NC(=O)[C@H](CC(C)C)NC(=O)[C@H](CCCNC(=N)N)NC(=O)[C@H](CCSC)NC(=O)[C@@H](N)CCC(=O)O)CCCCNC(=O)C[C@@H](C(=O)N[C@@H](CCCNC(=N)N)C(=O)N[C@@H](CCCCN)C(=O)N[C@@H](CCCCN)C(=O)O)NC(=O)[C@H](CC(C)C)NC1=O` [CSP1-cyc(K10D14)] (H-EMRLSKFFRKFILDRKK-OH; lactam 10-14; N-terminus and C-terminus assumed), a half-maximal response on ComD1 receptor (EC50) required 257 nM.

Values taken from patent US12528838B2, “Cyclic dominant negative competence stimulating peptide analogs and methods of treating Streptococcus pneumoniae infections” (priority 2019, dated 2026).
